From PMC8617031, “Development of a BCL-xL and BCL-2 dual degrader with improved anti-leukemic activity,” (Nature Communications, 2021)
Several values for one entry are separate records, joined by “and”; a condition that tells them apart may be missing. Identical values can stand only once.

Legend:
[1] = test system: BCL-xL/PROTAC/VCB ternary complex (HiBit-BCL-xL, HaloTag-VHL); experiment: NanoBRET intracellular ternary complex formation in 293T cells, BCL-xL; assay type: cell-based, human; conditions: for nanoBRET ratio (610/450, background-subtracted), Ave, Bcl-xl: Ave of Read2 and Read3; for nanoBRET ratio (610/450, background-subtracted), Ave, Bcl-xl / nanoBRET ratio (610/450, background-subtracted), Read2, Bcl-xl / nanoBRET ratio (610/450, background-subtracted), Read3, Bcl-xl: triplicate wells
Procedure, shortened: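 293T cells were transfected with HiBit-BCL-xL or HiBit-BCL-2 plus HaloTag-VHL and incubated overnight with or without HaloTag NanoBRET 618 ligand in 4% FBS Opti-MEM. Serially diluted compounds were applied for 6 h at 37 °C. mBRET ratio from donor emission (450/50 nm) and acceptor emission (610 nm longpass) after Nano-Glo substrate.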

[2] = test system: Hela cells; experiment: Viability (MTS) of Hela cells; assay type: cell-based, human; conditions: for cell viability normalised to control wells (single replicate): in % (unit assumed)
Experimental: Suspension cells were treated 30 min after seeding, whereas adherent cells were allowed to adhere overnight and were then treated. Compound treatments were prepared in complete cell culture medium and 100 µl of 2× treatment-containing medium were added to each well. Complete cell culture medium without treatment was added in control wells, and wells containing medium without cells served as background. The outer wells of the 96-well plate were not used for treatment and were filled with 250 µl of PBS to reduce evaporation of medium from inner wells. Each compound and/or combination was tested at nine different concentrations with three replicates. The cell viability was measured after 72 h by tetrazolium-based MTS assay. MTS reagent (2 mg ml^–1 stock; cat. no. G1111, Promega) was freshly supplemented with phenazine methosulfate (PMS, 0.92 mg ml^–1 stock, cat. no. P9625, Sigma-Aldrich) in 20:1 ratio, and 20 µl of this mixture was added to each control and treatment well. The cells were incubated for 4 h at 37 °C and 5% CO2, and then the absorbance was recorded at 490 nm using Biotek’s Synergy Neo2 multimode plate reader (Biotek). The average absorbance value of background wells was subtracted from absorbance value of each control and treatment well, and percent cell viability ((At/A0) × 100)) was determined in each treatment well, where At is the absorbance value of the treatment well and A0 is the average absorbance value of control wells after background subtraction. The data were expressed as average percentage cell viability and fitted in non-linear regression curves using GraphPad Prism 7 (GraphPad Software, La Jolla, CA, USA).

[3] = MTS absorbance 490, Conc 0.00137174 uM
[4] = MTS absorbance 490, Conc 0.00411523 uM
[5] = MTS absorbance 490, Conc 0.037037 uM
[6] = MTS absorbance 490, Conc 0.111111 uM
[7] = MTS absorbance 490, Conc 0.333333 uM

| SMILES | nanoBRET ratio (610/450, background-subtracted), Ave, Bcl-xl ([1]; 0.004 uM) | nanoBRET ratio (610/450, background-subtracted), Read2, Bcl-xl ([1]; 0.004 uM) | nanoBRET ratio (610/450, background-subtracted), Read3, Bcl-xl ([1]; 0.004 uM) | nanoBRET ratio (610/450, background-subtracted), Ave, Bcl-xl ([1]; 0.012 uM) | nanoBRET ratio (610/450, background-subtracted), Read2, Bcl-xl ([1]; 0.012 uM) | nanoBRET ratio (610/450, background-subtracted), Read3, Bcl-xl ([1]; 0.012 uM) | nanoBRET ratio (610/450, background-subtracted), Ave, Bcl-xl ([1]; 0.111 uM) | nanoBRET ratio (610/450, background-subtracted), Read2, Bcl-xl ([1]; 0.111 uM) | nanoBRET ratio (610/450, background-subtracted), Read3, Bcl-xl ([1]; 0.111 uM) | nanoBRET ratio (610/450, background-subtracted), Ave, Bcl-xl ([1]; 0.333 uM) | nanoBRET ratio (610/450, background-subtracted), Read2, Bcl-xl ([1]; 0.333 uM) | nanoBRET ratio (610/450, background-subtracted), Read3, Bcl-xl ([1]; 0.333 uM) | nanoBRET ratio (610/450, background-subtracted), Ave, Bcl-xl ([1]; 1 uM) | cell viability normalised to control wells (single replicate) [2, 3] | cell viability normalised to control wells (single replicate) [2, 4] | cell viability normalised to control wells (single replicate) [2, 5] | cell viability normalised to control wells (single replicate) [2, 6] | cell viability normalised to control wells (single replicate) [2, 7] | cell viability normalised to control wells (single replicate) ([2]; MTS absorbance 490, Conc 1 uM) | cell viability normalised to control wells (single replicate) ([2]; MTS absorbance 490, Conc 3 uM) | further results |
| --- | --- | --- | --- | --- | --- | --- | --- | --- | --- | --- | --- | --- | --- | --- | --- | --- | --- | --- | --- | --- | --- |
| Cc1ncsc1-c1ccc([C@H](C)NC(=O)[C@@H]2C[C@@H](O)CN2C(=O)[C@@H](NC(=O)CCCCCCC(=O)N2CCN(C[C@@]3(C)CCC(c4ccc(Cl)cc4)=C(CN4CCN(c5ccc(C(=O)NS(=O)(=O)c6ccc(N[C@H](CCN7CCOCC7)CSc7ccccc7)c(S(=O)(=O)C(F)(F)F)c6)cc5)CC4)C3)CC2)C(C)(C)C)cc1 [753a] | 6.588 and 5.267 and 6.114 | 6.808 and 5.756 and 5.973 | 6.368 and 4.777 and 6.254 | 7.772 and 5.901 and 5.719 | 8.034 and 6.13 and 5.719 | 7.511 and 5.673 and 5.719 | 7.6 and 7.528 and 6.707 | 8.597 and 7.785 and 7.564 | 6.603 and 7.27 and 5.849 | 7.771 and 7.613 and 7.591 | 8.649 and 8.045 and 7.293 | 6.893 and 7.18 and 7.888 | 6.777 and 6.861 and 6.637 | – | – | – | – | – | – | – | nanoBRET ratio (610/450, background-subtracted), Read2, Bcl-xl ([1]; 1 uM): 6.613 and 6.856 and 7.09; nanoBRET ratio (610/450, background-subtracted), Read3, Bcl-xl ([1]; 1 uM): 6.94 and 6.866 and 6.184; nanoBRET ratio (610/450, background-subtracted), Ave, Bcl-xl ([1]; 3 uM): 7.07 and 7.184 and 6.888; nanoBRET ratio (610/450, background-subtracted), Read2, Bcl-xl ([1]; 3 uM): 7.24 and 8.026 and 7.182; nanoBRET ratio (610/450, background-subtracted), Read3, Bcl-xl ([1]; 3 uM): 6.9 and 6.341 and 6.5933 |
| Cc1ncsc1-c1ccc([C@H](C)NC(=O)[C@@H]2C[C@@H](O)CN2C(=O)[C@@H](NC(=O)CCCCCCC(=O)N2CCN(C[C@]3(C)CCC(c4ccc(Cl)cc4)=C(CN4CCN(c5ccc(C(=O)NS(=O)(=O)c6ccc(N[C@H](CCN7CCOCC7)CSc7ccccc7)c(S(=O)(=O)C(F)(F)F)c6)cc5)CC4)C3)CC2)C(C)(C)C)cc1 [753b] | 6.669 and 7.034 and 7.222 | 6.7548 and 7.529 and 7.533 | 6.584 and 6.539 and 6.911 | 7.369 and 7.678 and 8.359 | 7.541 and 7.384 and 8.298 | 7.198 and 7.973 and 8.421 | 9.509 and 8.705 and 10.1696 | 10.2238 and 9.035 and 9.873 | 8.794 and 8.375 and 10.4663 | 10.2723 and 9.168 and 8.741 | 10.5785 and 8.953 and 8.643 | 9.9661 and 9.383 and 8.84 | 8.944 and 10.7233 and 9.842 | 103.801 and 94.6965 and 107.009 | 98.1647 and 87.1532 and 93.8295 | 94.6965 and 88.7139 and 102.066 | 90.1012 and 81.2572 and 107.876 | 79.8699 and 97.9913 and 103.627 | 76.4884 and 93.6561 and 98.5983 | 75.7081 and 83.5116 and 103.801 | cell viability normalised to control wells (mean of three replicates) [2, 3]: 101.835; cell viability normalised to control wells (mean of three replicates) [2, 4]: 93.0491; cell viability normalised to control wells (mean of three replicates) [2, 5]: 95.159; cell viability normalised to control wells (mean of three replicates) [2, 6]: 93.078; cell viability normalised to control wells (mean of three replicates) [2, 7]: 93.8295; cell viability normalised to control wells (mean of three replicates) ([2]; MTS absorbance 490, Conc 1 uM): 89.5809; cell viability normalised to control wells (mean of three replicates) ([2]; MTS absorbance 490, Conc 3 uM): 87.6734; nanoBRET ratio (610/450, background-subtracted), Read2, Bcl-xl ([1]; 1 uM): 9.3741 and 12.2305 and 10.3071; nanoBRET ratio (610/450, background-subtracted), Read3, Bcl-xl ([1]; 1 uM): 8.514 and 9.216 and 9.3776; nanoBRET ratio (610/450, background-subtracted), Ave, Bcl-xl ([1]; 3 uM): 8.924 and 8.687 and 9.846; nanoBRET ratio (610/450, background-subtracted), Read2, Bcl-xl ([1]; 3 uM): 9.65 and 9.358 and 10.5304; nanoBRET ratio (610/450, background-subtracted), Read3, Bcl-xl ([1]; 3 uM): 8.197 and 8.015 and 9.162; intracellular ternary complex formation with BCL-xL (in words) ([1]; NanoBRET, 293T cells, 6 h): much higher activity to induce the ternary complex formation with both BCL-xL and BCL-2 relative to 753a |
| CC1(C)CCC(c2ccc(Cl)cc2)=C(CN2CCN(c3ccc(C(=O)NS(=O)(=O)c4ccc(N[C@H](CCN5CCOCC5)CSc5ccccc5)c(S(=O)(=O)C(F)(F)F)c4)cc3)CC2)C1 [ABT263, navitoclax] | – | – | – | – | – | – | – | – | – | – | – | – | – | 109.176 and 100.419 | 94.0029 and 98.8584 | 90.3613 and 97.2977 | 79.4364 and 85.7659 and 104.581 | 80.9971 and 79.263 | 85.9393 and 80.3035 | 78.7428 and 78.4827 | – |
| Cc1ncsc1-c1ccc([C@H](C)NC(=O)[C@@H]2C[C@@H](O)CN2C(=O)[C@@H](NC(=O)CCCCCC(=O)N2CCN(CC[C@H](CSc3ccccc3)Nc3ccc(S(=O)(=O)NC(=O)c4ccc(N5CCN(CC6=C(c7ccc(Cl)cc7)CCC(C)(C)C6)CC5)cc4)cc3S(=O)(=O)C(F)(F)F)CC2)C(C)(C)C)cc1 [DT2216] | – | – | – | – | – | – | – | – | – | – | – | – | – | 91.7776 | 92.3987 and 92.7536 | 98.4324 and 86.0988 | 97.9 and 88.8495 | 93.1973 and 104.022 | 83.5256 and 94.1733 | 80.7749 | – |
